In patent US11691949B2, “Quinoline sulfonamide compounds and their use as antibacterial agents” (OTAGO INNOVATION LIMITED, priority 2017, dated 2023):
Values after ≈ are worked out from the molar mass of the structure shown. Like-named read-outs stand apart in the source and are kept apart here.

What was measured:
Type in all cases: cell-based
[1] = test system: E. coli ATCC 10596; assay: MIC by broth microdilution, E. coli; details: Escherichia coli, read-out: E. coli ATCC 10536 MIC
Procedure, shortened: (§1)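 Media: TSB or CAMHB for S. aureus, LB or CAMHB for E. coli, with zinc sulphate to 50 μM final where required. Cells at ~5×10^5 cfu/mL met two-fold compound series; growth was scored by OD600 after 24 h shaking at 37° C.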

[2] = test system: S. uberis ATCC 19436; assay: MIC by broth microdilution, S. uberis; details: Streptococcus uberis, read-out: S. uberis ATCC 19436 MIC
Procedure, shortened: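 Streptococcus uberis ATCC 19436 was tested in Todd Hewitt Broth by broth microdilution in 96-well flat bottom plates, in biological triplicate. Overnight cells were diluted to OD600 of approximately 0.025, giving about 5×10^5 cfu/mL in the wells. Compounds were serially diluted two-fold to 200 μl, incubated 24 h at 37° C. and 200 rpm, and the MIC was taken from OD600.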

[3] = test system: S. aureus ATCC 6538; assay: MIC by broth microdilution, S. aureus; details: Staphylococcus aureus, read-out: S. aureus ATCC 6538 MIC
Procedure, shortened: as §1

[4] = ATCC 10536 / ATCC 10596, No Zinc
[5] = ATCC 10536 / ATCC 10596, Zinc (50 μM)

Row | SMILES | MIC [1, 4] [µg/mL] | MIC [1, 5] [µg/mL] | MIC ([2]; ATCC19436, No Zinc) [µg/mL] | MIC ([2]; ATCC19436, Zinc (50 μM)) [µg/mL] | MIC ([3]; ATCC6538, No Zinc) [µg/mL] | MIC ([3]; ATCC6538, Zinc (50 μM)) [µg/mL]
1 | C=CS(=O)(=O)Nc1cccc2ccc(CN(C)C)nc12 [ZDR500, N-(2-((Dimethylamino)methyl)quinolin-8-yl)ethenesulfonamide] | > 256 | > 256 | > 256 | 0.5 (≈ 1.72 µM) | 256 (≈ 879 µM) | > 256
2 | CN(C)Cc1ccc2cccc(NS(=O)(=O)C3CCOCC3)c2n1 [ZDR502, N-(2-((Dimethylamino)methyl)quinolin-8-yl)tetrahydro-2H-pyran-4-sulfonamide] | > 256 | > 256 | > 256 | 0.25 (≈ 0.715 µM) | > 256 | > 256
3 | CN(C)Cc1ccc2cccc(NS(=O)(=O)CC3CC3)c2n1 [ZDR503, 1-Cyclopropyl-N-(2-((dimethylamino)methyl)quinolin-8-yl)methanesulfonamide] | > 256 | > 256 | > 256 | 0.125 (≈ 0.391 µM) | > 256 | 256 (≈ 801 µM)
4 | CN(C)Cc1ccc2cccc(NS(=O)(=O)CC3CCOCC3)c2n1 [ZDR504, N-(2-((Dimethylamino)methyl)quinolin-8-yl)-1-(tetrahydro-2H-pyran-4-yl)methanesulfonamide] | > 256 | > 256 | > 256 | 0.5 (≈ 1.38 µM) | > 256 | 256 (≈ 704 µM)
5 | CN(C)Cc1ccc2cccc(NS(=O)(=O)Cc3ccc(Cl)nc3)c2n1 [ZDR505, 1-(6-Chloropyridin-3-yl)-N-(2-((dimethylamino)methyl)quinolin-8-yl)methanesulfonamide] | > 256 | > 256 | > 256 | 0.25 (≈ 0.64 µM) | > 256 | 256 (≈ 655 µM)

More lines, now with the values ahead:

Row | MIC [1, 4] [µg/mL] | MIC [1, 5] [µg/mL] | MIC ([2]; ATCC19436, No Zinc) [µg/mL] | MIC ([2]; ATCC19436, Zinc (50 μM)) [µg/mL] | MIC ([3]; ATCC6538, No Zinc) [µg/mL] | MIC ([3]; ATCC6538, Zinc (50 μM)) [µg/mL] | SMILES
6 | > 256 | > 256 | > 256 | 0.25 (≈ 0.694 µM) | 256 (≈ 710 µM) | > 256 | Cc1cc(CS(=O)(=O)Nc2cccc3ccc(CN(C)C)nc23)no1 [ZDR501, N-(2-((Dimethylamino)methyl)quinolin-8-yl)-1-(5-methylisoxazol-3-yl)methanesulfonamide]
7 | > 256 | > 256 | 256 (≈ 844 µM) | 2 (≈ 6.59 µM) | > 256 | > 256 | C#CCS(=O)(=O)Nc1cccc2ccc(CN(C)C)nc12 [ZDR506, N-(2-((Dimethylamino)methyl)quinolin-8-yl)prop-2-yne-1-sulfonamide]
